# Test results: patent publication US20240398793A1, “Methods of Treating Lymphedema” (Celltaxis, LLC, priority 2021, published 2024)
# Like-named read-outs stand apart in the source and are kept apart here.
# Key:
# [1] = target: T1, LTA4H epoxide hydrolase (Homo sapiens (Human), UniProt P09960); conditions: read-out: LTA4H epoxide hydrolase potency; Bhatt et al. (2017); cited from earlier work
# [2] = tested on: LTB4 production in human whole blood; experiment: LTB4 production in ex vivo stimulated human whole blood; assay type: cell-based
# Source text: The IC50 of LTA4H epoxide hydrolase activity can be measured using methods known in the art, for example, using the LTA4 hydrolase homogenous time resolved fluorescence assay which is described, for example, in U.S. Pat. Nos. 7,737,145 and 10,202,362; the contents of which are expressly incorporated by reference herein. The hydrolase-homogeneous time resolved fluorescence assay is a two-step assay that measures the hydrolysis of LTA4 to LTB4 by analyzing the amount of LTB4 produced. The first step involves the enzymatic conversion of LTA4 to LTB4 and the second step involves the quantification of the LTB4 formed with a homogeneous time resolved fluorescence assay. LTA4H epoxide hydrolase activity can also be measured in a whole blood assay, for example, using human whole blood, using the method described in Penning, T. D. et al., J. Med. Chem. (2000), 43 (4): 721-735 and U.S. Pat. No. 7,737,145; the contents of each of which are expressly incorporated by reference herein. In the whole blood assay, the inhibitor compounds are tested for their ability to inhibit LTB4 release upon stimulation with calcium ionophore and the LTB4 levels in supernatants are measured by ELISA. LTA4H epoxide hydrolase activity can also be measured according to the method described in Low et al. (2017). […]
# [3] = Clinical safety and tolerability
# [4] = tested on: neutrophil swarming; experiment: Neutrophil swarming in vitro in response to CF sputum factors; assay type: cell-based; conditions: 48 ng/mL; factors present in human CF sputum
# [5] = Serious adverse reactions, Phase 2 Acebilustat safety population; assay type: in vivo, human; conditions: Phase 2, N = 217
# Source text: SARs reported in the completed Phase 2 studies and suspected to be potentially related to drug treatment are tabulated below.
# [6] = Human pharmacokinetics after oral administration; assay type: in vivo; conditions: for half-life / Tmax: human, plasma; for half-life: oral, read-out: T1/2 (elimination half-life); for Tmax: po
# [7] = target: LTA4H aminopeptidase (Homo sapiens (Human), UniProt P09960); conditions: Bhatt et al. (2017); read-out: LTA4H aminopeptidase potency; cited from earlier work
# [8] = tested on: sputum white blood cells and neutrophils; experiment: Sputum cell counts in CF patients; assay type: in vivo, human
# [9] = tested on: LTB4 production in blood; experiment: Human pharmacodynamic studies, inhibition of LTB4 production in blood; assay type: in vivo
# [10] = target: P-glycoprotein (P-gp) (Homo sapiens (Human), UniProt P08183); experiment: In vitro drug interaction study, P-gp; assay type: in vitro ADME
# [11] = target: T1, LTA4H epoxide hydrolase; experiment: LTA4H epoxide hydrolase enzymatic activity (LTB4 production) in vitro; assay type: biochemical; conditions: read-out: IC50, LTA4H-mediated production of LTB4
# Protocol: The hydrolase-homogeneous time resolved fluorescence assay is a two-step assay that measures the hydrolysis of LTA4 to LTB4 by analyzing the amount of LTB4 produced. The first step involves the enzymatic conversion of LTA4 to LTB4 and the second step involves the quantification of the LTB4 formed with a homogeneous time resolved fluorescence assay. […] In the whole blood assay, the inhibitor compounds are tested for their ability to inhibit LTB4 release upon stimulation with calcium ionophore and the LTB4 levels in supernatants are measured by ELISA.
# [12] = Preclinical phototoxicity studies
# [13] = Nonclinical pharmacokinetics and mass balance studies; assay type: in vivo, animals
# T1 sequence (P09960 whole entry): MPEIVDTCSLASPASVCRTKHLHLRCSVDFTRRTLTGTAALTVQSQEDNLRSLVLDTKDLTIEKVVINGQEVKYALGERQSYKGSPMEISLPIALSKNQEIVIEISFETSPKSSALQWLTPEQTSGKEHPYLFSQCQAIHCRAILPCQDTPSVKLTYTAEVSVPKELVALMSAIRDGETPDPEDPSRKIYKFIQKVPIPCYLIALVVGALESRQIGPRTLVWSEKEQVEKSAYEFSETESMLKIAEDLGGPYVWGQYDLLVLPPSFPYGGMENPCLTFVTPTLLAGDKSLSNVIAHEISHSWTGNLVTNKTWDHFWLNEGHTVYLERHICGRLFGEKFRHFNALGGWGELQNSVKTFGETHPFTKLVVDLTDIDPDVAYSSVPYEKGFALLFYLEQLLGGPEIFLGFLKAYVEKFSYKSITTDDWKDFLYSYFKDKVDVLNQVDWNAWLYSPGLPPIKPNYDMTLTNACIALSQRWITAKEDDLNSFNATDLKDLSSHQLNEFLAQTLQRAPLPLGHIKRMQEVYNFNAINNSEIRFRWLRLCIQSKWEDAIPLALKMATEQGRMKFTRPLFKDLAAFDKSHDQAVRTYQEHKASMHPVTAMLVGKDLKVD
# Chain of P-glycoprotein (P-gp) (P08183 whole entry): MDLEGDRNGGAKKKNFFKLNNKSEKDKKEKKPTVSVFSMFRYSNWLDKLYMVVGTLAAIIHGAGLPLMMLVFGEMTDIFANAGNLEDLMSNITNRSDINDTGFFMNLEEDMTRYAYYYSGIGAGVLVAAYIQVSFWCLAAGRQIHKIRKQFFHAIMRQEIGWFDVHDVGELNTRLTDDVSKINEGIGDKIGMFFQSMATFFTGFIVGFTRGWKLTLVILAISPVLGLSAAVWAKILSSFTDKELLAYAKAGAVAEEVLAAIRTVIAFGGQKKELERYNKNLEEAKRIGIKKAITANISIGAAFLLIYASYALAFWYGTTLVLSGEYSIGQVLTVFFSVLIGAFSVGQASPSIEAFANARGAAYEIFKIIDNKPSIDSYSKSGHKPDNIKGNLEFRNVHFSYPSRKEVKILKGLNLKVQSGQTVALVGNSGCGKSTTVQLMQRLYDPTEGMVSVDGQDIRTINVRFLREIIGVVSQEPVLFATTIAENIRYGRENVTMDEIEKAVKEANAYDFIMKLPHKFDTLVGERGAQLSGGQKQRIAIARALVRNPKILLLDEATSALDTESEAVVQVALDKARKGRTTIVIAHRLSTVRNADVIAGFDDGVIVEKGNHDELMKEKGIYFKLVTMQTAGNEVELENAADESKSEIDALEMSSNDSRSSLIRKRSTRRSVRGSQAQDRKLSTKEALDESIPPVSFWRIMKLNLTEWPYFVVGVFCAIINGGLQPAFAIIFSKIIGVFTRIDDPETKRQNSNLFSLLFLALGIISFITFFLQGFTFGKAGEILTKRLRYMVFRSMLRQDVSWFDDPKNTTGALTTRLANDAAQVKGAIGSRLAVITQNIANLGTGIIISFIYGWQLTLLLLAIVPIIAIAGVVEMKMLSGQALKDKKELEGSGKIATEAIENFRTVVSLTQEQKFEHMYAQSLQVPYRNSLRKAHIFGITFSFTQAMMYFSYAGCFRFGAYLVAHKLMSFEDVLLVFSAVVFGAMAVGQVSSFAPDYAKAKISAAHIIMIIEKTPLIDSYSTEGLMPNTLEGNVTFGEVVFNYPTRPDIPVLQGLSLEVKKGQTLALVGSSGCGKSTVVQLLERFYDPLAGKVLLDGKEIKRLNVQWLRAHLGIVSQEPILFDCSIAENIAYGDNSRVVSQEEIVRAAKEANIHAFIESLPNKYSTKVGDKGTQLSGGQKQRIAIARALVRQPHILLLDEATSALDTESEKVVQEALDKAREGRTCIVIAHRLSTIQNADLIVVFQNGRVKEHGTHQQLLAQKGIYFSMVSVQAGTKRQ
# Chain of LTA4H aminopeptidase (P09960 whole entry): as the sequence (P09960 whole entry) above
smiles,measurement,setting,value
"O=C(O)c1ccc(CN2C[C@@H]3C[C@H]2CN3Cc2ccc(Oc3ccc(-c4ncco4)cc3)cc2)cc1 [Acebilustat, 4-{[(1S,4S)-5-({4-[4-oxazol-2-yl-phenoxy]phenyl}methyl)-2,5-diazabicyclo[2.2.1]heptan-2-yl]methyl}benzoic acid]",IC50,[1],12 nM
same,IC50,[2]; ex vivo stimulated human whole blood,64 nM
same,IC50,"[2]; human whole blood tested ex vivo, approximate",~0.0308 µg/mL
same,tolerability,"[3]; CF patients, 50 mg and 100 mg per day for 48 weeks",generally well tolerated
same,serious adverse reactions (SARs),"[3]; Phase 1 studies, healthy volunteers or subjects with CF",No SARs were reported
same,safety and tolerability,"[3]; across six clinical studies, 5 to 200 mg",generally safe and well tolerated
same,circulating neutrophil counts or sputum microbiology,[3]; clinical studies,did not alter
same,headache considered to be related to Acebilustat,[3]; clinical studies,8%
same,tolerability,"[3]; healthy volunteers, once-daily oral up to 200 mg/day for 14 days",well tolerated
same,reduction of neutrophil swarming,[4],80%
same,"SAR Distal intestinal obstruction syndrome, # of Subjects",[5],1
same,"SAR Distal intestinal obstruction syndrome, Frequency",[5],0.5%
same,"SAR Distal intestinal obstruction syndrome, Intensity Mild",[5],0
same,"SAR Distal intestinal obstruction syndrome, Intensity Moderate",[5],0
same,"SAR Distal intestinal obstruction syndrome, Intensity Severe",[5],1
same,"SAR Drug Induced Liver Injury, # of Subjects",[5],1
same,"SAR Drug Induced Liver Injury, Frequency",[5],0.5%
same,"SAR Drug Induced Liver Injury, Intensity Mild",[5],0
same,"SAR Drug Induced Liver Injury, Intensity Moderate",[5],0
same,"SAR Drug Induced Liver Injury, Intensity Severe",[5],1
same,"SAR Gastrointestinal disorders, # of Subjects",[5],1
same,"SAR Gastrointestinal disorders, Frequency",[5],0.5%
same,"SAR Gastrointestinal disorders, Intensity Mild",[5],0
same,"SAR Gastrointestinal disorders, Intensity Moderate",[5],0
same,"SAR Gastrointestinal disorders, Intensity Severe",[5],1
same,"SAR Hepatobiliary Disorders, # of Subjects",[5],1
same,"SAR Hepatobiliary Disorders, Frequency",[5],0.5%
same,"SAR Hepatobiliary Disorders, Intensity Mild",[5],0
same,"SAR Hepatobiliary Disorders, Intensity Moderate",[5],0
same,"SAR Hepatobiliary Disorders, Intensity Severe",[5],1
same,"SAR Infections and infestations, # of Subjects",[5],1
same,"SAR Infections and infestations, Frequency",[5],0.5%
same,"SAR Infections and infestations, Intensity Mild",[5],0
same,"SAR Infections and infestations, Intensity Moderate",[5],0
same,"SAR Infections and infestations, Intensity Severe",[5],1
same,"SAR Infective pulmonary exacerbation of cystic fibrosis, # of Subjects",[5],1
same,"SAR Infective pulmonary exacerbation of cystic fibrosis, Frequency",[5],0.5%
same,"SAR Infective pulmonary exacerbation of cystic fibrosis, Intensity Mild",[5],0
same,"SAR Infective pulmonary exacerbation of cystic fibrosis, Intensity Moderate",[5],0
same,"SAR Infective pulmonary exacerbation of cystic fibrosis, Intensity Severe",[5],1
same,half-life,[6]; CF patients,8 to 9 h
same,half-life,[6]; healthy volunteers,15 to 18 h
same,Tmax,"[6]; humans, fasting",~1.5 h
same,Tmax,"[6]; humans, with a high-fat meal",5 to 6 h
same,"exposures (Cmax, AUC), healthy volunteers versus CF patients",[6]; humans,did not vary appreciably
same,time to steady state exposure,"[6]; humans, repeated dosing",7 days
same,effect of larger body size and concomitant CFTR modulator therapies on clearance,"[6]; population PK, Phase 2 CF trial",increase clearance
same,IC50,[7],27 nM
same,sputum neutrophils decrease,[8]; 100 mg group,65%
same,sputum white blood cells decrease from Baseline,[8]; 100 mg group,60%
same,sputum neutrophils decrease,[8]; all treated (50 to 100 mg),34%
same,sputum white blood cells decrease from Baseline,[8]; all treated subjects (50 or 100 mg),31%
same,inhibition at 50 mg,"[9]; 50 mg dose, human pharmacodynamic studies",≥ 63%
same,inhibition at 100 mg,"[9]; 100 mg dose, human pharmacodynamic studies",≥ 74%
same,inhibition at 150 mg,"[9]; 150 mg dose, human pharmacodynamic studies",≥ 82%
same,inhibition at 200 mg,"[9]; 200 mg dose, human pharmacodynamic studies",≥ 85%
same,EC50,"[9]; Homo sapiens, in vivo, humans, estimated",0.093 µg/mL
same,EC50,"[9]; human clinical PD studies, blood",190 nM
same,EC50 for inhibition of LTB4 production,"[9]; in vivo, humans, estimated",0.093 µg/mL
same,engagement of the pharmacologic mechanism in blood over 24-hour dosing interval,"[9]; once-daily oral doses of 50 mg and above, phase 1 studies",significant engagement of the pharmacologic mechanism
same,drug interactions with substrates of P-gp,[10],potential for drug interactions
same,IC50,[11],13 nM
same,phototoxic effects,[12],no potential for phototoxic effects
same,accumulation and retention in pigmented tissues (uveal tract),[13]; mass balance studies in animals,some potential for accumulation and retention
same,route of elimination,[13]; nonclinical,primarily via liver-bile-feces
same,total drug excreted via kidneys,[13]; nonclinical,less than 3%
